The record followed here is patent US20250339569A1, “CARBONIC ANHYDRASE IX LIGANDS” (priority 2021, published 2025).

Experiment [1] addresses T1, CAIX-expressing human HT-29 colorectal cancer cells (Homo sapiens, UniProt Q16790).
T1 construct: CAIX-expressing human HT-29 colorectal cancer cells; host or cells: HT-29 human colorectal cancer cells
Put plainly: FACS binding assay (IC50 determination, competition with tracer 3BP-2776 or 3BP-4149). The conditions noted are these: FACS binding assay, HT-29 cells, 4° C., 1 hour, read-out: pIC50 category (activity) (converted). Put shortly:
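HT-29 cells in FACS buffer (PBS, 1% FCS) at 500.000 cells/ml were exposed to compounds competing with a labelled tracer, with biotinylated compounds detected by 1 μg/mL APC-streptavidin for 30 min on ice. APC/Cy5 median fluorescence was read by flow cytometry and IC50 derived by 4PL fit.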

The target in experiment [2] is T2, human carbonic anhydrase IX (hCAIX-Fc) (Homo sapiens, UniProt Q16790).
T2 construct: purchased SinoBliological (Sino Biological) 10107-H02H
Put plainly: Surface plasmon resonance assay with hCAIX-Fc. Format: binding. To be noted: 25° C.; for t1/2 category (activity): SPR dissociation half-life, hCAIX-Fc; for Kd: SPR, hCAIX-Fc captured, read-out: pKD category (activity) (converted). On the technique in general: Surface plasmon resonance follows binding to a sensor surface in real time, without labels.

Setting [3] is: competition with tracer 3BP-4149 (3 nM, Cy5-labeled).
Setting [4] is: competition with tracer 3BP-2776 (10 nM, biotin-labeled).

Like-named read-outs stand apart in the source and are kept apart here. Starred links: 1 amine or outer side, 2 acyl side, 3 side chain; linkers in the order of their positions; H or OH if unused. Positions of bridges follow the written chain, without caps; N, C: chain ends. Non-standard residues stand in square brackets, D forms with d. Residues, ends and D or L forms follow the SMILES beside them. *: point of attachment. Phe(3-NHCO(CH2)3SO2NH2) = N[C@@H](Cc1cccc(NC(=O)CCCS(N)(=O)=O)c1)C(=O)O; DOTA = O=C(O)CN1CCN(CC(=O)O)CCN(CC(=O)*)CCN(CC(=O)O)CC1; Nip(3R) = O=C([C@@H]1CCCN([*:1])C1)[*:2]; Propanoyl(3-SO2NH2) = NS(=O)(=O)CCC(=O)*; Phe(4-NH2) = Nc1ccc(C[C@H](N)C(=O)O)cc1; mXylylene = c1cc(C[*:1])cc(C[*:2])c1; X14 = O=C([C@H]1CCCN([*:1])C1)[*:2]; X18 = NS(=O)(=O)c1ccc(C(=O)*)nc1; X2 = O=C(CN1CCC(N[*:1])CC1)[*:2]; X1 = O=C(CN1CCN([*:1])CC1)[*:2]; X27 = NS(=O)(=O)c1ccc(C(=O)*)s1; Pip = O=C(O)[C@@H]1CCCCN1; Dap = NC[C@H](N)C(=O)O

On to `CC(C)C[C@@H]1NC(=O)[C@H](Cc2cccc(NC(=O)CCCS(N)(=O)=O)c2)NC(=O)[C@H](CC(=O)O)NC(=O)[C@H]2CCCN2C(=O)[C@H](CCC(=O)O)NC(=O)[C@@H]2CSCc3cccc(c3)CSC[C@@H](C(N)=O)NC(=O)[C@H](CNC(=O)C[C@H](NC(=O)[C@@H](NC(=O)CN3CCC(NC(=O)CN4CCN(CC(=O)O)CCN(CC(=O)O)CCN(CC(=O)O)CC4)CC3)C(C)C)C(=O)N2)NC(=O)[C@H](Cc2c[nH]c3ccccc23)NC(=O)[C@H]([C@@H](C)O)NC1=O` [3BP-4445] ({DOTA}-[X2]VDCE[dP]D[Phe(3-NHCO(CH2)3SO2NH2)]LTW[Dap]C-NH2; lactam 3-12; linker 4-13 via mXylylene), for which the IC50 in experiment [1] (setting [3]) was less than 10 nM. For the same molecule, in experiment [2], the “t1/2 category (activity)” value was “A (t1/2>15.0 minutes)” and the Kd was less than 10 nM.

Regarding `CC(C)C[C@@H]1NC(=O)[C@H](Cc2c[nH]c3ccccc23)NC(=O)[C@H](CC(=O)O)NC(=O)[C@H]2CCCN2C(=O)[C@H](CCC(=O)O)NC(=O)[C@@H](NC(=O)[C@H](Cc2ccc(O)cc2)NC(=O)CN2CCN(C(=O)CN3CCN(CC(=O)O)CCN(CC(=O)O)CCN(CC(=O)O)CC3)CC2)CSCc2cccc(c2)CSC[C@@H](C(N)=O)NC(=O)[C@H](CO)NC(=O)[C@H](Cc2c[nH]c3ccccc23)NC(=O)[C@H]([C@@H](C)O)NC1=O` [3BP-4446] ({DOTA}-[X1]YCE[dP]DWLTWSC-NH2; linker 3-12 via mXylylene), the IC50 in experiment [1] (setting [3]) is 10 to 79.4 nM. Besides, in experiment [2], the “t1/2 category (activity)” value was “C (t1/2 between 2.1 and 5.0 minutes)”; the Kd is less than 10 nM.

On to `CC(C)C[C@@H]1NC(=O)[C@H](Cc2cccc(NC(=O)CCCS(N)(=O)=O)c2)NC(=O)[C@H](CC(=O)O)NC(=O)[C@H]2CCCN2C(=O)[C@H](CCC(=O)O)NC(=O)[C@@H](NC(=O)[C@H](Cc2ccc(O)cc2)NC(=O)CN2CCN(C(=O)CN3CCN(CC(=O)O)CCN(CC(=O)O)CCN(CC(=O)O)CC3)CC2)CSCc2cccc(c2)CSC[C@@H](C(N)=O)NC(=O)[C@H](CO)NC(=O)[C@H](Cc2c[nH]c3ccccc23)NC(=O)[C@H]([C@@H](C)O)NC1=O` [3BP-4448] ({DOTA}-[X1]YCE[dP]D[Phe(3-NHCO(CH2)3SO2NH2)]LTWSC-NH2; linker 3-12 via mXylylene), for which the IC50 in experiment [1] (setting [4]) was less than 10 nM. In experiment [2], the “t1/2 category (activity)” value was “A (t1/2>15.0 minutes)” and the Kd was less than 10 nM.

As for `CC(C)C[C@@H]1NC(=O)[C@H](Cc2cccc(NC(=O)CCCS(N)(=O)=O)c2)NC(=O)[C@H](CC(=O)O)NC(=O)[C@H]2CCCN2C(=O)[C@H](CCC(=O)O)NC(=O)[C@@H](NC(=O)[C@H](CCC(N)=O)NC(=O)CN2CCN(CC(=O)O)CCN(CC(=O)O)CCN(CC(=O)O)CC2)CSCc2cccc(c2)CSC[C@@H](C(N)=O)NC(=O)[C@H](CO)NC(=O)[C@H](Cc2c[nH]c3ccccc23)NC(=O)[C@H]([C@@H](C)O)NC1=O` [3BP-4453], the IC50 in experiment [1] (setting [4]) is less than 10 nM. In experiment [2], the “t1/2 category (activity)” value is recorded as “A (t1/2>15.0 minutes)” and the Kd is less than 10 nM.

`CC(C)C[C@@H]1NC(=O)[C@H](Cc2cccc(NC(=O)CCCS(N)(=O)=O)c2)NC(=O)[C@H](CC(=O)O)NC(=O)[C@H]2CCCN2C(=O)[C@H](CCC(=O)O)NC(=O)[C@@H](NC(=O)[C@H](Cc2ccc(O)cc2)NC(=O)[C@H]2CCCN(C(=O)CN3CCN(CC(=O)O)CCN(CC(=O)O)CCN(CC(=O)O)CC3)C2)CSCc2cccc(c2)CSC[C@@H](C(N)=O)NC(=O)[C@H](CO)NC(=O)[C@H](Cc2c[nH]c3ccccc23)NC(=O)[C@H]([C@@H](C)O)NC1=O` [3BP-4454] ({DOTA}-[X14]YCE[dP]D[Phe(3-NHCO(CH2)3SO2NH2)]LTWSC-NH2; linker 3-12 via mXylylene): in experiment [1] (setting [3]), the IC50 was 10 to 79.4 nM. Besides, in experiment [2], the “t1/2 category (activity)” value was “A (t1/2>15.0 minutes)” and the Kd was less than 10 nM.

With `CC(C)C[C@@H]1NC(=O)[C@H](Cc2cccc(NC(=O)CCCS(N)(=O)=O)c2)NC(=O)[C@H](CC(=O)O)NC(=O)[C@H]2CCCN2C(=O)[C@H](CCC(=O)O)NC(=O)[C@@H](NC(=O)[C@H](Cc2ccc(O)cc2)NC(=O)[C@@H]2CCCN(C(=O)CN3CCN(CC(=O)O)CCN(CC(=O)O)CCN(CC(=O)O)CC3)C2)CSCc2cccc(c2)CSC[C@@H](C(N)=O)NC(=O)[C@H](CO)NC(=O)[C@H](Cc2c[nH]c3ccccc23)NC(=O)[C@H]([C@@H](C)O)NC1=O` [3BP-4455] ({DOTA}-[Nip(3R)]YCE[dP]D[Phe(3-NHCO(CH2)3SO2NH2)]LTWSC-NH2; linker 3-12 via mXylylene), the IC50 in experiment [1] (setting [4]) is less than 10 nM. Moreover, in experiment [2], the “t1/2 category (activity)” value was “A (t1/2>15.0 minutes)” and the Kd was less than 10 nM.

As to `CC(C)C[C@@H]1NC(=O)[C@H](Cc2cccc(NC(=O)CCCS(N)(=O)=O)c2)NC(=O)[C@H](CC(=O)O)NC(=O)[C@H]2CCCN2C(=O)[C@H](CCC(=O)O)NC(=O)[C@@H](NC(=O)[C@H](Cc2ccc(O)cc2)NC(=O)[C@@H]2CCCCN2C(=O)CN2CCN(CC(=O)O)CCN(CC(=O)O)CCN(CC(=O)O)CC2)CSCc2cccc(c2)CSC[C@@H](C(N)=O)NC(=O)[C@H](CO)NC(=O)[C@H](Cc2c[nH]c3ccccc23)NC(=O)[C@H]([C@@H](C)O)NC1=O` [3BP-4456] ({DOTA}-[Pip]YCE[dP]D[Phe(3-NHCO(CH2)3SO2NH2)]LTWSC-NH2; linker 3-12 via mXylylene), the IC50 in experiment [1] (setting [3]) is 10 to 79.4 nM. In experiment [2], the “t1/2 category (activity)” value is listed as “A (t1/2>15.0 minutes)” and the Kd is less than 10 nM.

For `CC(C)C[C@@H]1NC(=O)[C@H](Cc2ccc(NC(=O)c3ccc(S(N)(=O)=O)s3)cc2)NC(=O)[C@H](CC(=O)O)NC(=O)[C@H]2CCCN2C(=O)[C@H](CCC(=O)O)NC(=O)[C@@H](NC(=O)[C@H](Cc2ccc(O)cc2)NC(=O)CN2CCN(C(=O)CN3CCN(CC(=O)O)CCN(CC(=O)O)CCN(CC(=O)O)CC3)CC2)CSCc2cccc(c2)CSC[C@@H](C(N)=O)NC(=O)[C@H](CO)NC(=O)[C@H](Cc2c[nH]c3ccccc23)NC(=O)[C@H]([C@@H](C)O)NC1=O` [3BP-4457] ({DOTA}-[X1]YCE[dP]D[Phe(4-NH2)](X27)LTWSC-NH2; linker 3-12 via mXylylene), in experiment [1] (setting [3]), the IC50 was less than 10 nM. Further, in experiment [2], the “t1/2 category (activity)” value is “B (t1/2 between 5.1 and 15.0 minutes)”; the Kd is less than 10 nM.

On to `CC(C)C[C@@H]1NC(=O)[C@H](Cc2ccc(NC(=O)c3ccc(S(N)(=O)=O)cn3)cc2)NC(=O)[C@H](CC(=O)O)NC(=O)[C@H]2CCCN2C(=O)[C@H](CCC(=O)O)NC(=O)[C@@H](NC(=O)[C@H](CCC(N)=O)NC(=O)CN2CCN(C(=O)CN3CCN(CC(=O)O)CCN(CC(=O)O)CCN(CC(=O)O)CC3)CC2)CSCc2cccc(c2)CSC[C@@H](C(N)=O)NC(=O)[C@H](CO)NC(=O)[C@H](Cc2c[nH]c3ccccc23)NC(=O)[C@H]([C@@H](C)O)NC1=O` [3BP-4480] ({DOTA}-[X1]QCE[dP]D[Phe(4-NH2)](X18)LTWSC-NH2; linker 3-12 via mXylylene), for which, in experiment [1] (setting [3]), the IC50 was 10 to 79.4 nM. For the same molecule, in experiment [2], the “t1/2 category (activity)” value was “C (t1/2 between 2.1 and 5.0 minutes)”; the Kd is less than 10 nM.

In the case of `CC(C)C[C@@H]1NC(=O)[C@H](Cc2cccc(NC(=O)CCCS(N)(=O)=O)c2)NC(=O)[C@H](CC(=O)O)NC(=O)[C@H]2CCCN2C(=O)[C@H](CCC(=O)O)NC(=O)[C@@H]2CSCc3cccc(c3)CSC[C@@H](C(N)=O)NC(=O)[C@H](CNC(=O)C[C@H](NC(=O)CN3CCN(CC(=O)O)CCN(CC(=O)O)CCN(CC(=O)O)CC3)C(=O)N2)NC(=O)[C@H](Cc2c[nH]c3ccccc23)NC(=O)[C@H]([C@@H](C)O)NC1=O` [3BP-4488] ({DOTA}-DCE[dP]D[Phe(3-NHCO(CH2)3SO2NH2)]LTW[Dap]C-NH2; lactam 1-10; linker 2-11 via mXylylene), in experiment [1] (setting [3]), the IC50 is less than 10 nM. For the same molecule, in experiment [2], the “t1/2 category (activity)” value is listed as “A (t1/2>15.0 minutes)” and the Kd was less than 10 nM.

In the case of `CC(C)C[C@@H]1NC(=O)[C@H](Cc2ccc(NC(=O)CCS(N)(=O)=O)cc2)NC(=O)[C@H](CC(=O)O)NC(=O)[C@H]2CCCN2C(=O)[C@H](CCC(=O)O)NC(=O)[C@@H]2CSCc3cccc(c3)CSC[C@@H](C(N)=O)NC(=O)[C@H](CNC(=O)C[C@H](NC(=O)CN3CCN(CC(=O)O)CCN(CC(=O)O)CCN(CC(=O)O)CC3)C(=O)N2)NC(=O)[C@H](Cc2c[nH]c3ccccc23)NC(=O)[C@H]([C@@H](C)O)NC1=O` [3BP-4489] ({DOTA}-DCE[dP]D[Phe(4-NH2)](Propanoyl(3-SO2NH2))LTW[Dap]C-NH2; lactam 1-10; linker 2-11 via mXylylene), the IC50 in experiment [1] (setting [3]) was less than 10 nM. Also, in experiment [2], the “t1/2 category (activity)” value is “A (t1/2>15.0 minutes)” and the Kd was less than 10 nM.

For the molecule `CC(C)C[C@@H]1NC(=O)[C@H](Cc2cccc(NC(=O)CCCS(N)(=O)=O)c2)NC(=O)[C@H](CC(=O)O)NC(=O)[C@H]2CCCN2C(=O)[C@H](CCC(=O)O)NC(=O)[C@@H]2CSCc3cccc(c3)CSC[C@@H](C(N)=O)NC(=O)[C@H](CNC(=O)C[C@H](NC(=O)CN3CCN(C(=O)CN4CCN(CC(=O)O)CCN(CC(=O)O)CCN(CC(=O)O)CC4)CC3)C(=O)N2)NC(=O)[C@H](Cc2c[nH]c3ccccc23)NC(=O)[C@H]([C@@H](C)O)NC1=O` [3BP-4497] ({DOTA}-[X1]DCE[dP]D[Phe(3-NHCO(CH2)3SO2NH2)]LTW[Dap]C-NH2; lactam 2-11; linker 3-12 via mXylylene), the IC50 in experiment [1] (setting [4]) was 10 to 79.4 nM. Besides, in experiment [2], the “t1/2 category (activity)” value was “A (t1/2>15.0 minutes)” and the Kd is less than 10 nM.
